The subject of data set [1] is EMT-6/P tumors. As to the kind of experiment: Growth and event-free survival of subcutaneously implanted EMT-6/P tumors in BALB/c mice. It counts as in vivo, mouse. The note with it: first experiment, FIG. 1A; s.c. EMT-6/P tumors in BALB/c mice, therapy from 50 mm3.
Experimental: The combination of CTLA-4 blockade with metronomic chemotherapy regimens was evaluated. Murine EMT-6 breast tumor cells were subcutaneously implanted into syngeneic BALB/c mice (n=6-8/group) and therapies on the established tumors were evaluated. Murine CTLA-4 blockade was achieved using anti-mouse CD152 (CTLA-4), clone 9H10, injected on day 1 (100 μg/mouse) and on day 6 (35 μg/mouse) of therapy. Anti-CTLA-4 therapy was administered alone or combined with metronomic regimens. These included: (a) bolus (150 mg/kg, i.p.) CTX followed by metronomic CTX (20 mg/kg/day, p.o.), (b) metronomic CTX, and (c) sequential gemcitabine therapy (160 mg/kg every 3 days, i.p.) given when the tumors relapsed after the anti-CTLA-4 therapy.
Anti-CTLA-4 therapy combined with bolus plus low-dose CTX. To evaluate whether metronomic CTX regimens could be combined effectively with an anti-CTLA-4 treatment, a combination regimen was tested on subcutaneously implanted EMT-6/P tumors (FIG. 1A). For the chemotherapy component, a bolus with low dose CTX protocol consisting of a bolus of CTX (given on day 1 as a 150 mg/kg, i.p. injection) plus low-dose CTX (20 mg/kg/day, p.o., from day 1) was used. […]
Mice were monitored twice weekly for tumor growth, as measured using Vernier calipers, and calculated using the formula (length×width)/2, and for fluctuations in body weight. […]
For data set [2] the following is noted: mouse, in vivo.
Text: To assess the relative toxicity of the therapies, body weights of the mice over the course of the experiment was monitored, as in the previous studies (du Manoir et al., Clin Cancer Res., 2006, 12:904-16; Francia et al., Mol Cancer Ther., 2012, 11:680-89).
Mice were monitored twice weekly for tumor growth, as measured using Vernier calipers, and calculated using the formula (length×width)/2, and for fluctuations in body weight. Institutional guidelines were followed to determine when the experimental end points were reached. Results were also plotted as event-free survival (Kaplan-Meier analysis) over time, where the duration of event-free survival was defined as time to primary tumor progression beyond 1,200 mm3 or >15% weight loss, as in the previous study (du Manoir et al., Clin Cancer Res., 2006, 12, 904-16).

We go through two molecules from patent US20150283237A1, “CTLA-4 BLOCKADE WITH METRONOMIC CHEMOTHERAPY FOR THE TREATMENT OF CANCER” (priority 2014, published 2015).

Counter-ions that a name gives are not always drawn.

Regarding `O=P1(N(CCCl)CCCl)NCCCO1` (centres unmarked) [bolus with low dose CTX, Cyclophosphamide], the “impact of therapy on tumor growth” value in data set [1] is “minimal reduction in tumor growth”. As for `Nc1ccn([C@@H]2O[C@H](CO)[C@@H](O)C2(F)F)c(=O)n1` [gemcitabine, Gemcitabine hydrochloride], the “body weight change / toxicity” value in data set [2] was “slight weight drop”.
